Data published in patent publication US6710048B2, “Pyrazine derivatives as modulators of tyrosine kinases” (Ortho-McNeil Pharmaceutical, Inc., priority 2000, dated 2004).
pIC50: −log10 of the molar value.

Key:
[1] = biological target: T1, EGFR (epidermal growth factor receptor) (Homo sapiens, UniProt P00533); test: EGF-R kinase selectivity assay; assay type: biochemical; settings: Table 4 kinase selectivity
T1 construct: is purified from human A431 cell membranes; purchased Sigma E3641; host or cells: A431 cell membranes
Description: Assays to test compound inhibition of other kinases were preformed using methods that measure the amount of phosphorylation of a biotinylated peptide substrate. Biotinylated peptide substrates were selected from the literature as appropriate for the enzyme being evaluated. […] Assay conditions vary slightly for each protein kinase, for example, insulin receptor kinase requires 10 mM MnCl2 for activity and Calmodulin-dependent protein kinase requires calmodulin and 2 mM CaCl2. The reaction mixture was dispensed into the wells of a streptavidin coated Flashplate and 1 μl drug stock in 100% DMSO was added to a 100 μl reaction volume resulting in a final concentration of 1% DMSO in the reaction. Enzyme was diluted in 50 mM Tris-HCl pH=8.0, 0.1% BSA and added to each well. The reaction was incubated for one hour at 30° C. in the presence of compound. […] The plate was read on a scintillation counter to determine ^33P-γ-ATP incorporated into the immobilized peptide. […] A maximum and minimum signal for the assay was determined on each plate. The IC50 was calculated from the dose response curve of the percent inhibition of the maximum signal in the assay according to the formula [max signal−background/test compound signal−background (100)=% inhibition] by graphing the percent inhibition against the log concentration of test compound. […]

[2] = tested on: HeLa cervical adenocarcinoma; test: Cell proliferation assay (14C-thymidine incorporation), HeLa; assay type: cell-based; settings: Homo sapiens, read-out: Inhibition of cell proliferation IC50
Description: (§1) The ability of a test compound to inhibit the proliferation of cell growth was determined by measuring incorporation of ^14C-labelled thymidine into newly synthesized DNA within the cells. This method was used on cell lines derived from carcinomas originating from several tissues such as HeLa cervical adenocarcinoma (American Type Culture Collection (ATCC), Virginia, Cat. #CCL-2), A375 malignant melanoma (ATCC CRL-1619), SK-OV-3 ovarian adenocarcinoma (ATCC HTB-77) HCT-116 colon carcinoma (CCL-247) and PC-3 prostate adenocarcinoma (ATCC CRL-1435). The method was also used on primary cells such as HUVEC endothelial cells (ATCC CRL-1730). In this way the effect of a compound on cell growth of cells with many different phenotypes can be determined. Cells were trypsinized and counted and 3000-8000 cells were added to each well of a 96-well CytoStar tissue culture treated scintillating microplate (Amersham #RPNQ0160) in complete medium in a volume of 100 μl. Cells were incubated for 24 hours in complete medium at 37° C. in an atmosphere containing 5% CO2.
(§2) Next, 1 μl of test compound in 100% DMSO was added to the wells of the plate. DMSO only was added to control wells. Cells were incubated for 24 more hours in complete medium at 37° C. in an atmosphere containing 5% CO2. Methyl ^14C-thymidine 56 mCi/mmol (NEN #NEC568 or Amersham #CFA532) was diluted in complete medium and 0.2 μCi/well was added to each well of the CytoStar plate in a volume of 20 μl. The plate was incubated for 24 hours at 37° C. plus 5% CO2 in drug plus ^14C-thymidine. The contents of the plate were discarded into a ^14C radioactive waste container by inverting the plate and the plate was washed twice with 200 μl PBS. 200 μl of PBS is then added to each well. The top of the plate was sealed with a transparent plate sealer and a white plate backing sealer (Packard #6005199) was applied to the bottom of the plate. The degree of Methyl ^14C-thymidine incorporation was quantified on a Packard Top Count.

[3] = tested on: SK-OV-3 ovarian adenocarcinoma; test: Cell proliferation assay (14C-thymidine incorporation), SK-OV-3; assay type: cell-based; settings: Homo sapiens, read-out: Inhibition of cell proliferation IC50
Description: as §1, §2

T1 sequence (P00533 25-1210): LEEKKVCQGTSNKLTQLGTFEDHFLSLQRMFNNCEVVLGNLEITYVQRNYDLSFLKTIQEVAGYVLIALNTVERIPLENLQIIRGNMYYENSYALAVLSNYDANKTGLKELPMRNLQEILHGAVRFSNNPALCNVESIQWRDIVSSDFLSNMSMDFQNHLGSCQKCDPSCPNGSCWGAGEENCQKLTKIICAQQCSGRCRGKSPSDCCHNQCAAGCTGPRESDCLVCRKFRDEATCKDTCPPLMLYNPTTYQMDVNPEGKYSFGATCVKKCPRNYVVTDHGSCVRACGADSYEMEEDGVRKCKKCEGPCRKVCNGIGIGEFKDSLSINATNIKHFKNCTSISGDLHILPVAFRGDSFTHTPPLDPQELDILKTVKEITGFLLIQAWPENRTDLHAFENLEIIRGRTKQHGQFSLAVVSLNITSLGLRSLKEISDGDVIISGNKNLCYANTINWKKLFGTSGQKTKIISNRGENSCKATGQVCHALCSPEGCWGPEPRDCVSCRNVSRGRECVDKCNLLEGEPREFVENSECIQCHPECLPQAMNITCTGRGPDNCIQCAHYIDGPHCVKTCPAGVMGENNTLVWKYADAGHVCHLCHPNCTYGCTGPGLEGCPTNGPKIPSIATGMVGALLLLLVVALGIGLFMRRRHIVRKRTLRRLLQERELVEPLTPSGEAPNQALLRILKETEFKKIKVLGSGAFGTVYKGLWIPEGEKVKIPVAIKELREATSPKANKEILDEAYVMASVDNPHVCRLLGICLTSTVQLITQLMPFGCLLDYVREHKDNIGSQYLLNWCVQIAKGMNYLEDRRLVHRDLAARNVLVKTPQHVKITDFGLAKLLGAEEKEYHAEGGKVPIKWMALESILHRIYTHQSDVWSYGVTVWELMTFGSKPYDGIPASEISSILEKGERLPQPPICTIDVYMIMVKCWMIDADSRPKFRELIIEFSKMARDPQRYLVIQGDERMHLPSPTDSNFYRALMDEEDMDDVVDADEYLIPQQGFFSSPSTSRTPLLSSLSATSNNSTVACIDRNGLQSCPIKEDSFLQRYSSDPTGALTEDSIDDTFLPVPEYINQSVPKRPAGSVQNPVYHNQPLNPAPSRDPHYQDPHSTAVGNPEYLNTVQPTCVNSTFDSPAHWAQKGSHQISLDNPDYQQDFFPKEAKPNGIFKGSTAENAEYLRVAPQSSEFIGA

pIC50 [2]	pIC50 [3]	Structure (SMILES)	pIC50 [1]
–	–	O=C(NCCCO)c1cncc(-c2cncc(Nc3cccc(Cl)c3)n2)c1 [Cmd 39]	5.22
5.65	4.67	CN(C)CCNc1cncc(-c2cncc(Nc3cccc(Cl)c3)n2)c1 [Cmd 33, N′-[5-[6-[(3-chlorophenyl)amino]pyrazinyl]-3-pyridinyl]-N^2,N^2-dimethyl-1,2-ethanediamine]	–
5.66	5.42	Clc1cccc(Nc2cncc(-c3cncc(NCCCN4CCCCC4)c3)n2)c1 [Cmd 73]	–
–	–	CN(C)CCCNc1cncc(-c2cncc(Nc3cccc(Cl)c3)n2)c1 [Cmd 35]	4.68
